Values of other authors as cited in US20220387447A1, “FORMULATIONS OF TESTOSTERONE AND METHODS OF TREATMENT THEREWITH” (BOARD OF REGENTS, THE UNIVERSITY OF TEXAS SYSTEM, priority 2016, published 2022).

Experiments:
[1] = system: women; details: single-dose administration, sublingually
[2] = intranasal administration; baseline mean 2.5 pmol/L

CC12CCC(=O)C=C1CCC1C2CCC2(C)C(O)CCC12 (centres unmarked) [testosterone, Testosterone]
subjective sexual desire, genital responsiveness, and genital arousal [1]: increase | maximum testosterone concentration (mean) [2]: 168.2 pmol/L
